This note sets out measurements from US20160297761A1, “NOVEL INHIBITORS OF GLUTAMINASE” (RHIZEN PHARMACEUTICALS SA, priority 2014, published 2016).

For the assay, the target named is T1, L-glutaminase present in mice brain homogenate (Glutaminase(Brain)) (Mus musculus, UniProt D3Z7P3).
T1 sequence (D3Z7P3 55-674): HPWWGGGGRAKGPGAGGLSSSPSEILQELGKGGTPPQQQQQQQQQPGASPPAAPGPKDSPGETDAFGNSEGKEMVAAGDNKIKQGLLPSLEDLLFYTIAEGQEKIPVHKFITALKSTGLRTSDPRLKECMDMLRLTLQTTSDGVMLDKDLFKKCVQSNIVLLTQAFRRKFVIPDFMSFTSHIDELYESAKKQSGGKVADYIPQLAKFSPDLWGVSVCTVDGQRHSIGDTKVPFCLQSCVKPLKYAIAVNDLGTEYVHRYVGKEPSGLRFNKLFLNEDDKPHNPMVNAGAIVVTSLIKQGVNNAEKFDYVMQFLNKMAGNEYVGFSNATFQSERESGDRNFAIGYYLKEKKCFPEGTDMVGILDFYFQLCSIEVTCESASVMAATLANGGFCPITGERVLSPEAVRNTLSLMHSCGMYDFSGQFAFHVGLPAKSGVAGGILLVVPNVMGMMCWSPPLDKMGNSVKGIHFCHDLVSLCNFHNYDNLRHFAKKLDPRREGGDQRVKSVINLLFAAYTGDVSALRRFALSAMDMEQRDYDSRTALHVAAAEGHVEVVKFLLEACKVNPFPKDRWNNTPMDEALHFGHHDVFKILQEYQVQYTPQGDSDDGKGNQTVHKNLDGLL
As to the kind of experiment: Glutaminase enzyme activity using glutaminase enzyme from mice brain/kidney homogenate (Nessler's reagent, ammonia). The note with it: for inhibition at 0.1 µM: read-out: Glutaminase(Brain) activity % inhibition 0.1 μM; for inhibition at 1 µM: read-out: Glutaminase(Brain) activity % inhibition @1 μM. In kind it is biochemical. As for the experimental part:
Assay 3: Determination of Glutaminase Enzyme Activity Using Glutaminase
Enzyme from Mice Brain/Kidney
Step 1: Preparation of Tissue Homogenates: Male Balb/c mice were administered 0.28 M ammonium chloride in drinking water for 7 days. The animals were sacrificed and brain/kidney organs collected on dry ice. […] The tissue was homogenized and supernatants were stored at −80° C. until the enzyme assay was performed.
Aim: Compounds were assessed for their ability to inhibit the enzymatic activity of L-glutaminase present in mice brain/kidney homogenate.
Protocol: The assay was performed using a colorimetric method using Nessler's Reagent by quantifying the amount of ammonia formed as a by product during the enzymatic conversion of L-glutamine to glutamate. In the routine assay, 16 μl of tissue homogenate is added to 33 μl of Tris-Hcl phosphate buffer (pH 8) along with 1 μl of DMSO/test compound containing the desired final concentration and vortexed briefly. 50 μl of 20 mM L-glutamine Tris buffer is added to start the reaction and incubated for 15 minutes at 37° C. The ammonia formed is detected by adding 20 μl of reaction mixture to cold water in a 96 well plate followed by 20 μl of Nessler's reagent. The colour developed is measured at 450 nm. Data Analysis: Activity of the test compound is reported as % inhibition and the data is analyzed using Graphpad Prism (Graphpad software; San Diego Calif.) for IC50 determination.

Structures can show the parent of a compound that is named as a salt. Where two headings read alike, the source gives them in different places.

Take `O=C(Cc1cccc(OC(F)(F)F)c1)Nc1ccc(CCCCc2nnc(NC(=O)Cc3ccccn3)s2)nc1` [Example-4, 2-(Pyridin-2-yl)-N-(5-(4-(5-(2-(3-(trifluoromethoxy)phenyl)acetamido)pyridin-2-yl)butyl)-1,3,4-thiadiazol-2-yl)acetamide]: under “0.1 μM, mice brain homogenate”, the inhibition (as a rule, the share of the control response that was lost under treatment) at 0.1 µM is below 25%. Regarding `CS(=O)(=O)Nc1cccc(CC(=O)Nc2nnc(CCCCc3ccc(NC(=O)Cc4cccc(OC(F)(F)F)c4)nc3F)s2)c1` [Example-39, N-(6-Fluoro-5-(4-(5-(2-(3-(methylsulfonamido)phenyl)acetamido)-1,3,4-thiadiazol-2-yl)butyl)pyridin-2-yl)-2-(3-(trifluoromethoxy)phenyl)acetamide], the inhibition at 0.1 µM (0.1 μM, mice brain homogenate) lay within 25 to 50%. The inhibition at 1 µM (1 μM, mice brain homogenate) was in the range of 75 to 100%. `O=C(Cc1cccc(OC(F)(F)F)c1)Nc1ccc(CCCCc2nnc(NC(=O)Cc3ccc(C4CCNCC4)cc3)s2)cn1` [Example-34, 2-(4-(Piperidin-4-yl)phenyl)-N-(5-(4-(6-(2-(3-(trifluoromethoxy)phenyl)acetamido)pyridin-3-yl)butyl)-1,3,4-thiadiazol-2-yl)acetamide hydrochloride]: the inhibition at 0.1 µM is below 25% and the inhibition at 1 µM lay in the range of 25 to 50%. The matching figures for `O=C(Cc1cccc(OC(F)(F)F)c1)Nc1ccc(CCCCc2nnc(NC(=O)Cc3cccc(C4CCNCC4)c3)s2)cn1` [Example-36, 2-(3-(Piperidin-4-yl)phenyl)-N-(5-(4-(6-(2-(3-(trifluoromethoxy)phenyl)acetamido)pyridin-3-yl)butyl)-1,3,4-thiadiazol-2-yl)acetamide hydrochloride]: 25 to 50% and 25 to 50%. For the molecule `O=C(Cc1cccc(OC(F)(F)F)c1)Nc1ccc(CCCCc2nnc(NC(=O)Cc3cccnc3)s2)nc1` [Example-5, 2-(Pyridin-3-yl)-N-(5-(4-(5-(2-(3-(trifluoromethoxy)phenyl)acetamido)pyridin-2-yl)butyl)-1,3,4-thiadiazol-2-yl)acetamide], under “0.1 μM, mice brain homogenate”, the inhibition at 0.1 µM is below 25%. For the same molecule, the inhibition at 1 µM (1 μM, mice brain homogenate) was below 25%. As to `COc1ccccc1CC(=O)Nc1nnc(CCCCc2ccc(NC(=O)Cc3ccccc3Cl)nc2)s1` [Example 2, 2-(2-Chlorophenyl)-N-{5-[4-(5-(2-(2-methoxyphenyl)acetamido)-1,3,4-thiadiazol-2-yl)butyl]pyridin-2-yl}acetamide], the inhibition at 0.1 µM (0.1 μM, mice brain homogenate) was in the range of 50 to 75%. Also, the inhibition at 1 µM (1 μM, mice brain homogenate) is 75 to 100%.

With `O=C(Cc1cccnc1)Nc1ccc(CCCCc2nnc(NC(=O)Cc3ccccc3F)s2)cn1` [Example-19, 2-(2-Fluorophenyl)-N-(5-(4-(6-(2-(pyridin-3-yl)acetamido)pyridin-3-yl)butyl)-1,3,4-thiadiazol-2-yl)acetamide], the inhibition at 0.1 µM (0.1 μM, mice brain homogenate) lay within 50 to 75%. Besides, the inhibition at 1 µM (1 μM, mice brain homogenate) lay in the range of 75 to 100%.

For `CC(C)(C)OC(=O)N1CCC(c2ccc(CC(=O)Nc3nnc(CCCCc4ccc(NC(=O)Cc5cccc(OC(F)(F)F)c5)nc4)s3)cc2)CC1` [Example-33, Tert-butyl 4-(4-(2-oxo-2-(5-(4-(6-(2-(3-(trifluoromethoxy)phenyl)acetamido)pyridin-3-yl)butyl)-1,3,4-thiadiazol-2-ylamino)ethyl)phenyl)piperidine-1-carboxylate], where the note is “0.1 μM, mice brain homogenate”, the inhibition at 0.1 µM was below 25%. Further, the inhibition at 1 µM (1 μM, mice brain homogenate) fell in the range of 25 to 50%. With `O=C(Cc1cccnc1)Nc1ccc(CCCCc2nnc(NC(=O)Cc3cccnc3)s2)cn1` [Example-15, 2-(Pyridin-3-yl)-N-(5-(4-(5-(2-(pyridin-3-yl)acetamido)-1,3,4-thiadiazol-2-yl)butyl)pyridin-2-yl)acetamide], the inhibition at 0.1 µM (0.1 μM, mice brain homogenate) was 50 to 75%. The inhibition at 1 µM (1 μM, mice brain homogenate) was in the range of 75 to 100%.

With `CS(=O)(=O)c1ccc(CC(=O)Nc2nnc(CCCCc3ccc(NC(=O)Cc4cccnc4)nc3)s2)cc1` [Example-14, 2-(4-(Methylsulfonyl)phenyl)-N-(5-(4-(6-(2-(pyridin-3-yl)acetamido)pyridin-3-yl)butyl)-1,3,4-thiadiazol-2-yl)acetamide], the inhibition at 0.1 µM (0.1 μM, mice brain homogenate) was in the range of 75 to 100%. Under “1 μM, mice brain homogenate”, the inhibition at 1 µM was 75 to 100%. `O=C(Cc1cccnc1)Nc1ccc(CCCCc2nnc(NC(=O)Cc3ccccc3Cl)s2)cn1` [Example-12, 2-(2-Chlorophenyl)-N-(5-(4-(6-(2-(pyridin-3-yl)acetamido)pyridin-3-yl)butyl)-1,3,4-thiadiazol-2-yl) acetamide]: where the note is “0.1 μM, mice brain homogenate”, the inhibition at 0.1 µM lay within 75 to 100%. The inhibition at 1 µM (1 μM, mice brain homogenate) fell in the range of 75 to 100%. In the case of `O=C(Cc1cccc(OC(F)(F)F)c1)Nc1ncc(CCCCc2nnc(NC(=O)Cc3ccccn3)s2)cn1` [Example-7, 2-(Pyridin-2-yl)-N-(5-(4-(2-(2-(3-(trifluoromethoxy)phenyl)acetamido)pyrimidin-5-yl)butyl)-1,3,4-thiadiazol-2-yl)acetamide], the inhibition at 0.1 µM (0.1 μM, mice brain homogenate) was below 25%. For the same molecule, for the setting “1 μM, mice brain homogenate”, the inhibition at 1 µM lay in the range of 25 to 50%. The matching figures for `O=C(Cc1ccccn1)Nc1nnc(CC2CCC(Cc3nnc(NC(=O)Cc4ccccn4)s3)CC2)s1` (stereo not drawn) [Example-106, N,N′-(5, 5′-(Cyclohexane-1,4-diylbis(methylene))bis(1,3,4-thiadiazole-5,2-diyl))bis(2-(pyridin-2-yl)acetamide)]: below 25% and 25 to 50%. As for `O=C(Cc1cccc(OC(F)(F)F)c1)Nc1cnc(CCCCc2nnc(NC(=O)Cc3ccccn3)s2)cn1` [Example-6, 2-(Pyridin-2-yl)-N-(5-(4-(5-(2-(3-(trifluoromethoxy)phenyl)acetamido)pyrazin-2-yl)butyl)-1,3,4-thiadiazol-2-yl)acetamide], the inhibition at 0.1 µM was below 25% and the inhibition at 1 µM was 25 to 50%. `O=C(Cc1cccc(OC(F)(F)F)c1)Nc1ccc(CCCCc2nnc(NC(=O)Cn3nc(C(F)(F)F)cc3C(F)(F)F)s2)cn1` [Example-35, 2-(3,5-Bis(trifluoromethyl)-1H-pyrazol-1-yl)-N-(5-(4-(6-(2-(3-(trifluoromethoxy)phenyl)acetamido)pyridin-3-yl)butyl)-1,3,4-thiadiazol-2-yl)acetamide]: the inhibition at 0.1 µM (0.1 μM, mice brain homogenate) is below 25%. Further, the inhibition at 1 µM (1 μM, mice brain homogenate) is below 25%.

For `COc1ccccc1CC(=O)Nc1nnc(CCC#Cc2ccc(NC(=O)Cc3ccccc3Cl)nc2)s1` [Example 1, 2-(2-Chlorophenyl)-N-{5-[4-(5-(2-(2-methoxyphenyl)acetamido)-1,3,4-thiadiazol-2-yl)but-1-ynyl]pyridin-2-yl}acetamide], the inhibition at 0.1 µM (0.1 μM, mice brain homogenate) fell in the range of 25 to 50%. For the same molecule, under “1 μM, mice brain homogenate”, the inhibition at 1 µM was 75 to 100%. For the molecule `O=C(Cc1cccc(OC(F)(F)F)c1)Nc1ccc(CC2CC(c3nnc(NC(=O)Cc4ccccn4)s3)C2)nn1` (stereo not drawn) [Example-110, 2-(Pyridin-2-yl)-N-(5-(3-((6-(2-(3-(trifluoromethoxy)phenyl)acetamido)pyridazin-3-yl)methyl)cyclobutyl)-1,3,4-thiadiazol-2-yl)acetamide], the inhibition at 0.1 µM fell in the range of 75 to 100% and the inhibition at 1 µM lay within 75 to 100%. For the molecule `O=C(Cc1ccccc1Cl)Nc1ccc(CCCCc2nnc(NC(=O)Cc3cccnc3)s2)cn1` [Example-26, 2-(2-Chlorophenyl)-N-(5-(4-(5-(2-(pyridin-3-yl)acetamido)-1,3,4-thiadiazol-2-yl)butyl)pyridin-2-yl)acetamide], the inhibition at 0.1 µM (0.1 μM, mice brain homogenate) fell in the range of 50 to 75%. Besides, the inhibition at 1 µM (1 μM, mice brain homogenate) fell in the range of 75 to 100%. The matching figures for `O=C(Cc1ccccc1Cl)Nc1ccc(CCCCc2nnc(NC(=O)Cc3ccccn3)s2)cn1` [Example-25, 2-(2-Chlorophenyl)-N-(5-(4-(5-(2-(pyridin-2-yl)acetamido)-1,3,4-thiadiazol-2-yl)butyl)pyridin-2-yl)acetamide]: below 25% and 50 to 75%. The matching figures for `CS(=O)(=O)c1cccc(CC(=O)Nc2nnc(CCCCc3ccc(NC(=O)Cc4cccnc4)nc3)s2)c1` [Example-13, 2-(3-(Methylsulfonyl)phenyl)-N-(5-(4-(6-(2-(pyridin-3-yl)acetamido)pyridin-3-yl)butyl)-1,3,4-thiadiazol-2-yl)acetamide]: 75 to 100% and 75 to 100%.
